Assay [1] deals with T2MycNick cells. The assay can be described thus: Testing compounds for their ability of restoring contact inhibition (vacuolation, cell density). The class given is cell-based, murine. The following applies: for minimal effective concentration: T2MycNick cells grown beyond confluence, 7-14 days; for diameters of large vacuoles: cells that overgrew beyond confluence; for contact inhibition restoration (CIR) activity: high-density cells.

In assay [2] the test system is T2MycNick cells. The assay can be described thus: Proliferation and viability of cells cultured under sub-confluence. The class given is cell-based, murine. The note with it: for effect on proliferation and viability: cells grown at sub-confluence. As for the experimental part:
(§1) FIG. 1A is a graph showing that DEX has no effect on the viability of murine liver cancer cell lines cultured under sub-confluence. The isogenic murine liver cancer cell lines T2Puro and T2MycNick were passaged and exposed to vehicle or 2 μM of DEX at a confluence of 10%. The cell viability was assayed with Trypan blue exclusion assays at day 3.
FIG. 1C is a graph showing DEX has no effect on the proliferation of murine liver cancer cell lines cultured under sub-confluence the live cell number was calculated daily with an automatic Luna cell counter and relative cell number was shown for T2MycNick.
Exponentially growing murine cells expressing Myc-Nick (T2MycNick cells) were passaged into 24-well plates at a final confluence of 20% and were allowed to attach overnight before being exposed to a test compound at a concentration of 10 μM. T2MycNick cells were generated by expressing the Myc-nick, the N-terminal of the Myc protein, in the T2 cell line, which was, in turn, derived from a MYC-driven mouse liver cancer (Shachaf et al., Nature 2004 Oct. 28; 431(7012):1112-7). The cells were subjected to daily analysis of viability and morphology under an inverted tissue culture microscope or GE InCell Analyzer 2000. Cell density was documented after staining of DNA with PI 7-10 days after the initiation of treatment.

Assay [3] concerns MycNick cells. In words: MTT assay for cellular proliferation. The class given is cell-based, murine. The following applies: confluence of 20-30%, 1 nM to 5 μM.
Assay [4] relates to MycNick cells. In words: Soft agar colony formation assay (anchorage-independent growth). The assay is classed as cell-based, murine. The following applies: FIG. 9: 2 μM of DEX or 5 μM of HC, up to 22 days. The procedure:
FIG. 9. are images (left) and graphs (right) showing both Hydrocortisone and Dexamethasone suppress the anchorage-independent growth of T2MycNick cells. The T2MycNick cells were mixed with 0.35% soft agar and transferred to 24-well microplates 24 hours before exposed to vehicle, 2 μM of DEX or 5 μM of HC. Images were acquired with an inverted tissue culture microscope at 1, 9 and 22 days after initiation of drug treatment. The sizes of spheroids were quantified with Image J (right).
The soft agar colony formation assay was performed in 6-well plates with two layers of agar. For the first, 0.75% agar in DMEM medium was melted in a microwave oven and poured to form a bottom layer. Once solidified, 10-100K cells in 1 ml of DMEM containing 0.35% agar was added to form the top layer, which was later covered with 0.5 ml of DMEM. Cell culture medium was changed once every two days until colonies were ready to photograph. The antitumor activity of Hydrocortisone and Dexamethasone was tested in soft agar assays. […] The suppression of growth of the cell line in 3D culture is consistent with the suppressive impact of these compounds on cell density when cells were allowed to grow beyond confluence.

Assay [5] has as its system murine lung cancer cell line TA2280. In words: Final cell density and vacuolation in lung cancer cell line TA2280. The assay is classed as cell-based. The following applies: for final cell density: 2 weeks. An excerpt:
FIG. 5A. are images showing Hydrocortisone and Dexamethasone reduce the final cell density in a murine lung cancer cell line TA2280. The cells were exposed to vehicle or the indicated concentrations of either Hydrocortisone or Dexamethasone for 2 weeks. The cells were then fixed and stained with PI for nuclei to reveal the cell density.

Assay [6] concerns human lung cancer cell line A549. The assay can be described thus: Final cell density and vacuolation in lung cancer cell line A549. The assay is classed as cell-based. The following applies: for final cell density: 2 weeks. As for the experimental part: (§2) FIG. 5B are graphs and images showing Hydrocortisone and Dexamethasone reduce the final cell density in a lung cancer cell line A549 and a breast cancer cell line MDA-MB-231). The cells were exposed to vehicle or the indicated concentrations of either Hydrocortisone or Dexamethasone for 2 weeks. The cells were then either numerated with a Luna cell counter or fixed and stained with PI for nuclei to reveal the cell density.
Cells were treated for 10 days with Hydrocortisone and a Calcineurin inhibitor either individually or in combination and then stained with PI for DNA before imaged with an EVOS FL auto microscope.

Assay [7] relates to breast cancer cell line MDA-MB-231. The assay can be described thus: Final cell density and vacuolation in breast cancer cell line MDA-MB-231. The assay is classed as cell-based. The following applies: for final cell density: 2 weeks.
Source text: as §2

Assay [8] concerns T2Puro. The assay can be described thus: Restoration of contact inhibition and induction of vacuolation in control cell line. The class given is cell-based, murine. The following applies: FIG. 6A: 7 days, 2 μM of DEX. The procedure:
(§3) The indicated cell isogenic cell lines were exposed for 7 days to 2 μM of DEX. The cells were then imaged under an inverted tissue culture microscope (top left) or an EVOS FL Auto microscope after staining with Acridine Orange (bottom left). The area occupied by drug-induced vacuoles was quantified with Image J and data (bottom right). At the endpoint, the cells were also numerated with a Luna cell counter and relative cell number is shown (top right).

A further assay deals with T2Bc1-xL cells. In words: Restoration of contact inhibition and induction of vacuolation in Bc1-xL expressing cells. The class given is cell-based, murine. The note with it: FIG. 6A: 7 days, 2 μM of DEX. The procedure:
as §3

In assay [9] the test system is T2MycNick cells. The assay can be described thus: IF analysis of cell-cell junctions (ZO-1, β-catenin) in monolayer zones. The class given is cell-based, murine. The note with it: 7 days. As for the experimental part:
FIG. 14A. Are images (left) and graphs (right) showing relocation of β-catenin to the cell-cell junctions in monolayer zones. The murine liver cancer cell line T2MycNick was treated with the indicated concentration of Hydrocortisone or Dexamethasone for 7 days before fixed for IF analysis of β-catenin. DNA was stained with DAPI. Images were acquired with an EVOS FL auto microscope. The relative signal density alone the line in each subpanel was quantified with Image J.
FIG. 14B. Are images (left) and graphs (right) showing relocation of ZO-1 to the cell-cell junctions in monolayer zones. […] The relative signal density alone the line in each subpanel was quantified with Image J. […]
The following are primary antibodies used in this study. […] Primary antibodies were detected with Rhodamine (TRITC)-conjugated AffiniPure Donkey Anti-Rabbit IgG (H+L) (Cat. # 711-025-152), Fluorescein(FITC)-conjugated Affinipure Goat Anti-Rabbit IgG (H+L) (Cat.#111-095-003), Alexa Fluor488 Affinipure Goat Anti-Mouse IgG (H+L) (Cat. #115-545-003 from Jackson ImmunoResearch at 1:500 dilution. After immunostaining, cells were mounted on microscope slides with 4′,6′-diamidino-2-phenylindole (DAPI)-containing Vectashield mounting solution (Vector Laboratories, Cat. # H1500). For fluorescence detection, an EVOS FL Auto microscope (Thermo Fisher) was used.

Assay [10] deals with T2Puro. In words: Proliferation and viability of cells cultured under sub-confluence. The class given is cell-based, murine. The procedure:
as §1
FIG. 1B is a graph showing DEX has no effect on the proliferation of murine liver cancer cell lines cultured under sub-confluence. The live cell number was calculated daily with an automatic Luna cell counter and relative cell number was shown for T2Puro.

“Also recorded” adds a separate entry of the source. Where two headings read alike, the source gives them in different places.

As for `C[C@]12CCC(=O)C=C1CC[C@@H]1[C@@H]2[C@@H](O)C[C@@]2(C)[C@H]1CC[C@]2(O)C(=O)CO` [HC001, Hydrocortisone], the minimal effective concentration with T2MycNick cells [1] (Mus musculus, PI staining, read-out: Conc that reduces > 50% in the cell density) was determined as 0.156 µM; with T2MycNick cells [1] (Mus musculus, vacuolation covering no less than 10% of a random field, read-out: Min. effective conc. that elicits vacuolation), 0.156 µM. In the assay with T2MycNick cells [1], the “diameters of large vacuoles” value is recorded as “about 20 μm”. Also, the “contact inhibition restoration (CIR) activity” value in the assay with T2MycNick cells [1] was “restored contact inhibition”. The “cellular proliferation and viability” value in the assay with T2MycNick cells [2] (5 μM, grown in sub-confluence) was “did not affect”. In the assay with T2MycNick cells [2], the “effect on proliferation and viability” value is given as “no detectable effect”. Moreover, in the assay with MycNick cells [3], the “proliferation (MTT)” value is recorded as “neither Hydrocortisone nor Cyclosporin A affected the proliferation”. In addition, the anchorage-independent growth result in the assay on MycNick cells [4] is on record as “effectively suppressed; also recorded: suppress”. The vacuolation entry in assay [5], in [6] and in assay [7] was “induction of vacuolation” each time. Also, the final cell density entry in [5], in [6] and in assay [7] was “Reduction of final cell density” in each case. Also, in the assay with T2Puro [8], the “response (contact inhibition, vacuolation)” value is “did not respond”. In addition, in the assay on T2Bc1-xL cells, the “sensitivity (contact inhibition, vacuolation)” value is recorded as “did not confer sensitivity”. Further, the “cell-cell junctions in monolayer zones” value in the assay on T2MycNick cells [9] is listed as “restored”.

In the case of `C[C@@H]1C[C@H]2[C@@H]3CCC4=CC(=O)C=C[C@]4(C)[C@@]3(F)[C@@H](O)C[C@]2(C)[C@@]1(O)C(=O)CO` [HC002, Dexamethasone], the minimal effective concentration in the assay on T2MycNick cells [1] (PI staining, read-out: Conc that reduces > 50% in the cell density) turned out to be 0.125 µM; in the assay with T2MycNick cells [1] (vacuolation covering no less than 10% of a random field, read-out: Min. effective conc. that elicits vacuolation) it was 0.125 µM. Also, the “diameters of large vacuoles” value with T2MycNick cells [1] was “about 20 μm”. In the assay with T2MycNick cells [1], the “contact inhibition restoration (CIR) activity” value is “restored contact inhibition”. The “viability (Trypan blue exclusion)” value in the assay on T2MycNick cells [2] (2 μM, confluence of 10%, day 3) is “no effect”; in the assay on T2Puro [10] (2 μM, confluence of 10%, day 3) it was “no effect”. Also, the “effect on proliferation and viability” value in the assay on T2MycNick cells [2] was “no detectable effect”. The “proliferation (relative live cell number)” value in the assay on T2MycNick cells [2] (sub-confluence, counted daily) was “no effect”; with T2Puro [10] (sub-confluence, counted daily) it was “no effect”. In the assay on MycNick cells [4], the anchorage-independent growth entry is “effectively suppressed; also recorded: suppress”. Moreover, the vacuolation entry in assay [5], in [6] and in [7] was “induction of vacuolation” each time. The final cell density entry in assay [5], in assay [6] and in assay [7] was “Reduction of final cell density” in each case. In addition, the “response (contact inhibition, vacuolation)” value in the assay with T2Puro [8] is “did not respond”. In the assay with T2Bc1-xL cells, the “sensitivity (contact inhibition, vacuolation)” value is “did not confer sensitivity”. In addition, the “cell-cell junctions in monolayer zones” value in the assay with T2MycNick cells [9] is given as “restored”.
